pIC50: −log10 of the molar value.
Experiments:
[1] = test system: human lung cancer cell lines (NCI-H226); test: MTT cytotoxicity assay, NCI-H226; format: cell-based; conditions: for pIC50: Homo sapiens, read-out: IC50 (concentration of 50% proliferation-inhibitory effect) NCI-H226, NCI-H226 cells, 48 h treatment, MTT, mean of three independent experiments; for potency in inhibiting proliferation of NCI-H226 human cancer cell line: summary statement on Table 1
Method: (§1) The human lung cancer cell lines (NCI-H226) and human renal cancer cell lines (A-498) were purchased from the ATCC (Manassas, Va.). The NCI-H226 and A498 cells were cultured in RPMI-1640 and DMEM medium (GIBCO) respectively, supplemented with 10% FBS, penicillin (100 unit/mL)/streptomycin (100 μg/mL) and 1% L-glutamine. All cells were grown in a humidified atmosphere containing 5% CO2 at 37° C. The cytotoxicity was assessed using 3-(4,5-dimethylthiazol-2-yl)-2,5-diphenyltetrazolium bromide (MTT) assay. NCI-H226 and A498 cells were seeded at 1×10^4 cells/well into 96-well plates. After 24 h incubation to allow for cell attachment, cells were treated with test compounds for 48 h. After treatment, cells were washed once with PBS and incubated with 1 mg/ml MTT (Sigma, St. Louis, Mo., USA) for 2 h. Then the formazan precipitate was dissolved in […] DMSO and the absorbance was measured on an ELISA reader at a best wavelength of 570 nm.

[2] = test system: human renal cancer cell lines (A-498); test: MTT cytotoxicity assay, A498; format: cell-based; conditions: for pIC50: Homo sapiens, read-out: IC50 (concentration of 50% proliferation-inhibitory effect) A498, A498 cells, 48 h treatment, MTT, mean of three independent experiments; for potency in inhibiting proliferation of A498 human cancer cell line: summary statement on Table 1
Method: as §1

| Structure (SMILES) | melting point [°C] | pIC50 [1] | pIC50 [2] | potency in inhibiting proliferation of NCI-H226 human cancer cell line [1] | potency in inhibiting proliferation of A498 human cancer cell line [2] |
| --- | --- | --- | --- | --- | --- |
| OCc1ccc(-c2nn(-c3ccccc3F)c3cc[se]c23)o1 | 178 to 181 | – | – | – | – |
| OCc1ccc(-c2nn(-c3ccccc3)c3[se]ccc23)o1 | 136 to 138 | – | – | – | – |
| COC(=O)c1ccc(-c2nn(-c3ccccc3Cl)c3cc[se]c23)o1 [Compound 36, 3-(5-Methoxycarbonyl-2-furyl)-1-(2-chlorophenyl)selenolo-[3,2-c]pyrazole] | 134 to 136 | < 4.00 | < 4.00 | – | – |
| COC(=O)c1ccc(-c2nn(-c3cccc(Cl)c3)c3cc[se]c23)o1 [Compound 37, 3-(5-Methoxycarbonyl-2-furyl)-1-(3-chlorophenyl)selenolo-[3,2-c]pyrazole] | 107 to 109 | < 4.00 | < 4.00 | – | – |
| COC(=O)c1ccc(-c2nn(-c3ccc(Cl)cc3)c3cc[se]c23)o1 [Compound 38, 3-(5-Methoxycarbonyl-2-furyl)-1-(4-chlorophenyl)selenolo-[3,2-c]pyrazole] | 146 to 148 | < 4.00 | < 4.00 | – | – |
| COC(=O)c1ccc(-c2nn(-c3ccccc3F)c3cc[se]c23)o1 [Compound 39, 3-(5-Methoxycarbonyl-2-furyl)-1-(2-fluorophenyl)selenolo-[3,2-c]pyrazole] | – | < 4.00 | < 4.00 | – | – |
| COC(=O)c1ccc(-c2nn(-c3ccc(F)cc3)c3cc[se]c23)o1 [Compound 40, 3-(5-Methoxycarbonyl-2-furyl)-1-(4-fluorophenyl)selenolo-[3,2-c]pyrazole] | – | < 4.00 | < 4.00 | – | – |
| COC(=O)c1ccc(-c2nn(-c3ccccc3OC)c3cc[se]c23)o1 [Compound 41, 3-(5-Methoxycarbonyl-2-furyl)-1-(2-methoxyphenyl)selenolo-[3,2-c]pyrazole] | 72 to 76 | < 4.00 | < 4.00 | – | – |
| COC(=O)c1ccc(-c2nn(-c3ccc(OC)cc3)c3cc[se]c23)o1 [Compound 42, 3-(5-Methoxycarbonyl-2-furyl)-1-(4-methoxyphenyl)selenolo-[3,2-c]pyrazole] | 89 to 92 | < 4.00 | < 4.00 | – | – |
| Cc1cccc(-n2nc(-c3ccc(CO)o3)c3[se]ccc32)c1 [Compound 44, 3-(5-Hydroxymethyl-2-furyl)-1-5-methyl-phenylselenolo[3,2-c]pyrazole] | – | 4.60 | 5.70 | significant potency | significant potency |
| OCc1ccc(-c2nn(Cc3ccccc3)c3cc[se]c23)o1 [Compound 57, 1-Benzyl-3-(5-hydroxymethyl-2-furyl)selenolo[3,2-c]pyrazole] | 126 to 129 | 5.85 | 6.40 | significant potency | significant potency |
| O=C(O)CCC(=O)OCc1ccc(-c2nn(Cc3ccccc3)c3cc[se]c23)o1 [Compound 60, Succinic Acid mono-[5-(1-benzyl-selenolo[3,2-c]pyrazol-3-yl)furan-2-yl]methyl ester] | 111 to 114 | 5.66 | 6.10 | significant potency | significant potency |
| COC(=O)c1ccc(-c2nn(-c3ccccc3)c3[se]ccc23)o1 [Compound 78, 3-(5-Methoxycarbonyl-2-furyl)-1-phenylselenolo[2,3-c]-pyrazole] | 167 to 169 | < 4.00 | < 4.00 | – | – |
| COC(=O)c1ccc(-c2nn(Cc3ccccc3)c3[se]ccc23)o1 [Compound 79, 1-Benzyl-3-(5-methoxycarbonyl-2-furyl)selenolo[2,3-c]pyrazole] | 121 to 123 | < 4.00 | < 4.00 | – | – |
| OCc1ccc(-c2nn(Cc3ccccc3)c3[se]ccc23)o1 [Compound 81, 1-Benzyl-3-(5-Hydroxymethyl-2-furyl)selenolo[2,3-c]pyrazole] | 130.2 to 131.3 | – | 6.85 | significant potency | significant potency |

The next lines start with results.

| melting point [°C] | Structure (SMILES) | pIC50 [1] | pIC50 [2] | potency in inhibiting proliferation of NCI-H226 human cancer cell line [1] | potency in inhibiting proliferation of A498 human cancer cell line [2] |
| --- | --- | --- | --- | --- | --- |
| 144 to 147 | COC(=O)c1ccc(-c2nn(-c3ccccc3)c3cc[se]c23)o1 [Compound 34, 3-(5-Methoxycarbonyl-2-furyl)-1-phenylselenolo[3,2-c]-pyrazole] | – | – | – | – |
| 155 to 157 | COC(=O)c1ccc(-c2nn(-c3ccccc3)c3cc(C)[se]c23)o1 [Compound 35, 3-(5-Methoxycarbonyl-2-furyl)-1-phenyl-5-methylselenolo-[3,2-c]pyrazole] | – | – | – | – |
| 234 to 237 | O=C(O)c1ccc(-c2nn(-c3ccccc3)c3cc[se]c23)o1 [Compound 48, 3-(5-Hydroxycarbonyl-2-furyl)-1-phenylselenolo[3,2-c]pyrazole] | – | – | – | – |
| 236 to 239 | Cc1cc2c([se]1)c(-c1ccc(C(=O)O)o1)nn2-c1ccccc1 [Compound 49, 3-(5-Hydroxycarbonyl-2-furyl)-1-phenyl-5-methylselenolo[3,2-c]pyrazole] | – | – | – | – |
| 130 to 131 | COC(=O)c1ccc(-c2nn(Cc3ccccc3)c3cc[se]c23)o1 [Compound 55, 1-Benzyl-3-(5-methoxycarbonyl-2-furyl)selenolo[3,2-c]-pyrazole] | – | – | – | – |
| 142 to 145 | COC(=O)c1ccc(-c2nn(Cc3ccccc3)c3cc(C)[se]c23)o1 [Compound 56, 1-Benzyl-3-(5-methoxycarbonyl-2-furyl)-5-methylselenolo[3,2-c]pyrazole] | – | – | – | – |
| 147 to 148 | Cc1cc2c([se]1)c(-c1ccc(CO)o1)nn2Cc1ccccc1 [Compound 58, 1-Benzyl-3-(5-hydroxymethyl-2-furyl)-5-methylselenolo[3,2-c]pyrazole] | – | – | – | – |
| 243 to 244 | O=C(O)c1ccc(-c2nn(Cc3ccccc3)c3cc[se]c23)o1 [Compound 59, 1-Benzyl-3-(5-hydroxycarbonyl-2-furyl)selenolo[3,2-c]pyrazole] | – | – | – | – |
| 165 to 166 | COC(=O)c1ccc(-c2nn(-c3ccccc3)c3cc[se]c23)cc1 [Compound 66, 1-Phenyl-3-(p-methoxycarbonylphenyl)selenolo[3,2-c]pyrazole] | – | – | – | – |
| 150 to 153 | COC(=O)c1ccc(-c2nn(Cc3ccccc3)c3cc[se]c23)cc1 [Compound 67, 1-Benzyl-3-(p-methoxycarbonylphenyl)selenolo[3,2-c]pyrazole] | – | – | – | – |
| 133 to 134 | OCc1ccc(-c2nn(-c3ccccc3)c3cc[se]c23)cc1 [Compound 68, 1-Phenyl-3-(p-hydroxymethylphenyl)selenolo[3,2-c]pyrazole] | – | – | – | – |
| 158 to 160 | OCc1ccc(-c2nn(Cc3ccccc3)c3cc[se]c23)cc1 [Compound 69, 1-Benzyl-3-(p-hydroxymethylphenyl)selenolo[3,2-c]pyrazole] | – | – | – | – |

From patent publication US8053459B1, “Selenolopyrazole derivatives and use thereof as anticancer agents” (China Medical University, priority 2010, dated 2011)
